Laboratory results reported in PubChem BioAssay (NCI).
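Dose response: 5 concentrations. Exposure: 48 h. Format: 96-well plates. Endpoint: linear interpolation; highest concentration if not reached. TGI: concentration producing complete growth inhibition.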

How the values were obtained:
Test in all cases: NCI-60 cell line screen, 48 h
SN12C renal = system: SN12C renal
KM20L2 colon = system: KM20L2 colon
NCI-H522 lung = system: NCI-H522 lung
DMS 273 small cell lung = system: DMS 273 small cell lung
UO-31 renal = system: UO-31 renal
HT29 colon = system: HT29 colon
CAKI-1 renal = system: CAKI-1 renal
LOX IMVI melanoma = system: LOX IMVI melanoma
HCT-116 colon = system: HCT-116 colon
A498 renal = system: A498 renal
HCC-2998 colon = system: HCC-2998 colon
NCI-H23 lung = system: NCI-H23 lung
COLO 205 colon = system: COLO 205 colon
HCT-15 colon = system: HCT-15 colon
RXF 393 renal = system: RXF 393 renal
SK-OV-3 ovarian = system: SK-OV-3 ovarian
OVCAR-8 ovarian = system: OVCAR-8 ovarian
DLD-1 colon = system: DLD-1 colon
SF-539 CNS = system: SF-539 CNS
LXFL 529 NSCLC = system: LXFL 529 NSCLC
A549 NSCLC = system: A549 NSCLC
SK-MEL-2 melanoma = system: SK-MEL-2 melanoma
IGROV1 ovarian = system: IGROV1 ovarian
786-0 renal = system: 786-0 renal
SNB-19 CNS = system: SNB-19 CNS
NCI-H226 lung = system: NCI-H226 lung
SK-MEL-28 melanoma = system: SK-MEL-28 melanoma
NCI-H460 lung = system: NCI-H460 lung
OVCAR-5 ovarian = system: OVCAR-5 ovarian
ACHN renal = system: ACHN renal
SR leukemia = system: SR leukemia
MALME-3M melanoma = system: MALME-3M melanoma
M19-MEL melanoma = system: M19-MEL melanoma
SNB-75 CNS = system: SNB-75 CNS
SF-268 CNS = system: SF-268 CNS
TK-10 renal = system: TK-10 renal
SF-295 CNS = system: SF-295 CNS
XF 498 CNS = system: XF 498 CNS
SK-MEL-5 melanoma = system: SK-MEL-5 melanoma
UACC-257 melanoma = system: UACC-257 melanoma
KM12 colon = system: KM12 colon
EKVX NSCLC = system: EKVX NSCLC
OVCAR-3 ovarian = system: OVCAR-3 ovarian
HL-60(TB) leukemia = system: HL-60(TB) leukemia
SNB-78 CNS = system: SNB-78 CNS
U251 CNS = system: U251 CNS
DMS 114 small cell lung = system: DMS 114 small cell lung
SW-620 colon = system: SW-620 colon
UACC-62 melanoma = system: UACC-62 melanoma
MOLT-4 leukemia = system: MOLT-4 leukemia
CCRF-CEM leukemia = system: CCRF-CEM leukemia
M14 melanoma = system: M14 melanoma
RPMI-8226 leukemia = system: RPMI-8226 leukemia
OVCAR-4 ovarian = system: OVCAR-4 ovarian
HOP-92 NSCLC = system: HOP-92 NSCLC
HOP-62 NSCLC = system: HOP-62 NSCLC

## Nc1ncnc2c1ncn2CCCC(c1ccccc1)P(=O)(O)O (stereo unspecified)
SN12C renal
  TGI: > 100 µM
KM20L2 colon
  TGI: > 100 µM
NCI-H522 lung
  TGI: > 100 µM
DMS 273 small cell lung
  TGI: > 100 µM
UO-31 renal
  TGI: > 100 µM
HT29 colon
  TGI: > 100 µM
CAKI-1 renal
  TGI: 30.7 µM
LOX IMVI melanoma
  TGI: > 100 µM
HCT-116 colon
  TGI: > 100 µM
A498 renal
  TGI: > 100 µM
HCC-2998 colon
  TGI: > 100 µM
NCI-H23 lung
  TGI: > 100 µM
COLO 205 colon
  TGI: > 100 µM
HCT-15 colon
  TGI: > 100 µM
RXF 393 renal
  TGI: > 100 µM
SK-OV-3 ovarian
  TGI: > 100 µM
OVCAR-8 ovarian
  TGI: > 100 µM
DLD-1 colon
  TGI: > 100 µM
SF-539 CNS
  TGI: > 100 µM
LXFL 529 NSCLC
  TGI: > 100 µM
A549 NSCLC
  TGI: > 100 µM
SK-MEL-2 melanoma
  TGI: > 100 µM
IGROV1 ovarian
  TGI: > 100 µM
786-0 renal
  TGI: > 100 µM
SNB-19 CNS
  TGI: > 100 µM
NCI-H226 lung
  TGI: > 100 µM
SK-MEL-28 melanoma
  TGI: > 100 µM
NCI-H460 lung
  TGI: > 100 µM
OVCAR-5 ovarian
  TGI: > 100 µM
ACHN renal
  TGI: > 100 µM
SR leukemia
  TGI: > 100 µM
MALME-3M melanoma
  TGI: > 100 µM
M19-MEL melanoma
  TGI: > 100 µM
SNB-75 CNS
  TGI: > 100 µM
SF-268 CNS
  TGI: > 100 µM
TK-10 renal
  TGI: > 100 µM
SF-295 CNS
  TGI: > 100 µM
XF 498 CNS
  TGI: > 100 µM
SK-MEL-5 melanoma
  TGI: > 100 µM
UACC-257 melanoma
  TGI: > 100 µM
KM12 colon
  TGI: > 100 µM
EKVX NSCLC
  TGI: > 100 µM
OVCAR-3 ovarian
  TGI: > 100 µM
HL-60(TB) leukemia
  TGI: > 100 µM
SNB-78 CNS
  TGI: > 100 µM
U251 CNS
  TGI: > 100 µM
DMS 114 small cell lung
  TGI: > 100 µM
SW-620 colon
  TGI: > 100 µM
UACC-62 melanoma
  TGI: > 100 µM

## Cc1c(-c2coc(-c3ccccc3)n2)c(=O)n(-c2ccccc2)n1C
SN12C renal
  TGI: > 100 µM
MOLT-4 leukemia
  TGI: 86.9 µM
KM20L2 colon
  TGI: > 100 µM
NCI-H522 lung
  TGI: > 100 µM
DMS 273 small cell lung
  TGI: > 100 µM
UO-31 renal
  TGI: > 100 µM
HT29 colon
  TGI: > 100 µM
CCRF-CEM leukemia
  TGI: > 100 µM
LOX IMVI melanoma
  TGI: > 100 µM
HCT-116 colon
  TGI: > 100 µM
A498 renal
  TGI: > 100 µM
HCC-2998 colon
  TGI: > 100 µM
NCI-H23 lung
  TGI: > 100 µM
COLO 205 colon
  TGI: > 100 µM
HCT-15 colon
  TGI: > 100 µM
SK-OV-3 ovarian
  TGI: > 100 µM
OVCAR-8 ovarian
  TGI: > 100 µM
DLD-1 colon
  TGI: > 100 µM
SF-539 CNS
  TGI: > 100 µM
LXFL 529 NSCLC
  TGI: > 100 µM
A549 NSCLC
  TGI: > 100 µM
M14 melanoma
  TGI: > 100 µM
SK-MEL-2 melanoma
  TGI: > 100 µM
IGROV1 ovarian
  TGI: > 100 µM
786-0 renal
  TGI: > 100 µM
SNB-19 CNS
  TGI: > 100 µM
NCI-H226 lung
  TGI: > 100 µM
SK-MEL-28 melanoma
  TGI: > 100 µM
NCI-H460 lung
  TGI: > 100 µM
OVCAR-5 ovarian
  TGI: > 100 µM
ACHN renal
  TGI: > 100 µM
SR leukemia
  TGI: > 100 µM
RPMI-8226 leukemia
  TGI: > 100 µM
OVCAR-4 ovarian
  TGI: > 100 µM
MALME-3M melanoma
  TGI: > 100 µM
M19-MEL melanoma
  TGI: > 100 µM
HOP-92 NSCLC
  TGI: > 100 µM
SNB-75 CNS
  TGI: > 100 µM
SF-268 CNS
  TGI: > 100 µM
TK-10 renal
  TGI: > 100 µM
SF-295 CNS
  TGI: > 100 µM
XF 498 CNS
  TGI: 81.7 µM
HOP-62 NSCLC
  TGI: > 100 µM
SK-MEL-5 melanoma
  TGI: 61 µM
UACC-257 melanoma
  TGI: > 100 µM
KM12 colon
  TGI: > 100 µM
OVCAR-3 ovarian
  TGI: > 100 µM
HL-60(TB) leukemia
  TGI: > 100 µM
SNB-78 CNS
  TGI: > 100 µM
U251 CNS
  TGI: > 100 µM
DMS 114 small cell lung
  TGI: > 100 µM
SW-620 colon
  TGI: > 100 µM
